Measured values reported in publication PMC10256202, “Allosteric regulation of Senecavirus A 3C^pro proteolytic activity by an endogenous phospholipid” (PLOS Pathogens, 2023).

Molecular target: T1, SVA 3C^pro (Seneca Valley virus USA/SSV-001, UniProt Q155Z9)
T1 construct: full-length mature 3C cut from the genome polyprotein; codon-optimized, E. coli BL21(DE3); N-terminal His6-SUMO tag removed by ULP1 (lipid strips: His-tagged protein)
Experiment: CL-specific ELISA of lipid co-purified with the protein
Settings: endogenous E. coli lipid extracted by heating; lipid-binding (allosteric) site

T1 sequence (Q155Z9 1509-1719): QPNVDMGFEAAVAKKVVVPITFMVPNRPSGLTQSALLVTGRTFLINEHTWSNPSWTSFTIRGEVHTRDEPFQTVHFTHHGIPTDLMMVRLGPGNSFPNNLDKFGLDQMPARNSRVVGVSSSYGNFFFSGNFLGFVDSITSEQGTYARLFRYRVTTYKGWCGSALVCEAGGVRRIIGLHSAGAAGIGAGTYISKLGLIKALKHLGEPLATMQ

For cardiolipin [CL], the lipid content was ~ 24.2 μg/L.
